Structures are written as SMILES.

Data set [1] has as its system spontaneously hypertensive rats (SHR). The experiment in a line: Antihypertensive activity on vigilant spontaneously hypertensive rats (SHR). Format: in vivo, rat (male SHR, Wistar strain). How it is done: The experiment is performed on male SHR (of the Wistar strain) aged between 11 and 12 weeks; under pentobarbital anesthesia, a catheter is implanted in a carotid artery on the day before the experiment. In the experiment, the diastolic pressure (DP) and systolic pressure (SP) of the vigilant animals are recorded continuously 1 hour before and up to 2 hours after administration of the product. The heart rate (HR) is determined from the pulse pressure and recorded continuously for the same time.
The products were administered orally in a volume of 2 ml per 100 g of body weight after suspension in a 5% aqueous solution of gum arabic.

In another data set the test system is isolated rat portal vein. Kind of data set: Isolated rat portal vein: inhibition of spontaneous contractile activities. Details: species or system rat (male Sprague Dawley). The settings on record: 0.25 h, 37° C., 15 min per concentration. As to the method: Male Sprague Dawley rats (250-300 g) are stunned and then bled after their throats have been cut. The portal vein, ligated in situ at two points 15 mm apart, is isolated, cut longitudinally and then mounted vertically in an experimental cell containing a physiological solution, at 37° C., of the following composition (mmol/1): NaCl:137; KC1:5.4; MgCl2 :1.05; CaCl2 :[…]; NaH2 PO4 :12; NaHCO3 :[…]; glucose: 11.5, into which a mixture of gases containing 95% of oxygen and 5% of carbon dioxide is bubbled.
The vein is subjected to a tension of 500 mg. After a period of stabilization (about 1 h 30 min), the spontaneous contractile activities are recorded with the aid of an isometric sensor. Each measurement is performed successively on 4 preparations.
The results are expressed in the form of the molar concentrations which causes a 50 per cent inhibition of the spontaneous contractile activities (IC50).

The test system of data set [2] is guinea-pig papillary muscle. The experiment in a line: Guinea-pig papillary muscle: ventricular action potential (microelectrode method). On the set-up: species or system guinea-pig (male Albino Charles River). As to conditions: for IC50: Cavia porcellus, 0.5 h, 36° C., 60 beats per minute, 30 minutes of perfusion per concentration, read-out: IC50: concentration which produces a 50 per cent reduction in the duration of the action potential. How it is done: Male Albino Charles River guinea-pigs (300-400 g) are stunned and then bled after their throats have been cut. The heart is isolated and opened and the right papillary muscle is excised and then kept alive in an experimental cell containing a physiological solution at 36° C. (composition described above).
The preparation is stimulated with the aid of a bipolar electrode connected to a stimulator (frequency =60 beats per minute). The ventricular action potential is measured by the conventional microelectrode method. The characteristic parameters were measured on the action potentials (AP) before and after the introduction of the test product at 3 successive increasing concentrations (30 minutes of perfusion per concentration). The concentration which produces a 50 per cent reduction in the duration of the AP is indicated (IC50).

The nature of the next data set: in vivo. Format: in vivo. The settings on record: mouse, in vivo; mice, oral administration.
The next data set deals with mice. Kind of data set: in vivo. Format: in vivo. As to conditions: oral administration.
Data set [3] in a line: Overall comparison of activity, toxicity and therapeutic index with reference product. The settings on record: in the majority of the tests.
The test system of another data set is vigilant dogs. Kind of data set: Antiarrhythmic activity on vigilant dogs (acute infarction). The settings on record: orally, 0.03 mg/kg and 0.1 mg/kg. It counts as in vivo, dog. How it is done: The method used is the one described by Dupuis et al. (Br. J. Pharmacol., 1976, 58, p. 409), in which an acute infarction is caused by the insertion of a copper spiral into the coronary circulation, with the thorax closed off. The ECG is measured by telemetry and the extrasystoles are analyzed and counted automatically While the animal is being monitored by an internal television circuit. The products were administered orally to animals presenting at least 50 per cent of extrasystoles.

In the case of `CC1(C)C=C(n2ccccc2=O)c2cc(Br)ccc2O1` [SR 45374, 6-Bromo-4-(1,2-dihydro-2-oxopyrid-l-yl)-2,2dimethylchromene], in data set [1] (0.10 mg/kg p.o.), the “Duration of the effect” value is more than 120 min and the “Maximum decrease in mean blood pressure (± s.e.)” value (shortened to “Maximum decrease”) is 32 ± 6 mm of mercury. Also, in the data set with isolated rat portal vein, the IC50 was 7.9 nM.
With `CC(=O)c1ccc2c(c1)C(n1ccccc1=O)=CC(C)(C)O2` [SR 45510, 6-Acetyl-4-(1,2-dihydro-2-oxopyrid-1-yl)-2,2-dimethylchromene], the IC50 with isolated rat portal vein came out at 11 nM.
Same read-out and setting: then `CC1(C)Oc2ccc(Br)cc2[C@@H](n2ccccc2=O)[C@@H]1O` (relative stereo) [Product D, trans-6-bromo-4-(1,2-dihydro-2-oxopyrid-1-yl)-2,2-dimethylchroman-3-ol], with 250 nM.
Regarding `CC1(C)Oc2ccc(C#N)cc2[C@@H](n2ccccc2=O)[C@@H]1O` (relative stereo) [Product C, trans-6-cyano-4-(1,2-dihydro-2-oxopyrid-1-yl)-2,2-dimethylchroman-3-ol, reference compound], the IC50 turned out to be 20000 nM in data set [2] and 90 nM with isolated rat portal vein.
Consider `CC(=O)c1ccc2c(c1)[C@@H](n1ccccc1=O)[C@H](O)C(C)(C)O2` (relative stereo) [Product G, trans-6-acetyl-4-(1,2-dihydro-2-oxopyrid-1-yl)-2,2-dimethylchroman-3-ol], for which the IC50 in the data set with isolated rat portal vein stood at 190 nM.
As for `CC1(C)Oc2ccc(C#N)cc2[C@@H](N2CCCC2=O)[C@@H]1O` (relative stereo) [Product A, trans-6-cyano-4-(2-oxopyrrolidin-1-yl)-2,2-dimethyl-chroman-3-ol, reference compound], the LD50 in the data set “in vivo” was 500 to 1000 mg/kg. The IC50 in data set [2] stood at 16000 nM; in the data set with isolated rat portal vein, 68 nM. The “Duration of the effect” value in data set [1] (0.10 mg/kg p.o.) was 60 min; in data set [1] (0.20 mg/kg p.o.), 90 min. The “Maximum decrease” value is reported as 30 ± 10 mm of mercury in data set [1] (0.10 mg/kg p.o.) and 56 ± 11 mm of mercury in data set [1] (0.20 mg/kg p.o.).
`CC1(C)Oc2ccc(Cl)cc2[C@@H](n2ccccc2=O)[C@@H]1O` (relative stereo) [Product E, trans-6-chloro-4-(1,2-dihydro-2-oxopyrid-1-yl)-2,2-dimethylchroman-3-ol] had an IC50 in the data set with isolated rat portal vein of 190 nM.
In the data set on isolated rat portal vein, `CC1(C)C=C(n2ccccc2=O)c2cc([N+](=O)[O-])ccc2O1` [SR 45509, 4-(1,2-Dihydro-2-oxopyrid-1-yl)-2,2-dimethyl-6-nitrochromene] returned an IC50 of 2.2 nM.
Same read-out and setting: then `CC1(C)C=C(N2CCCC2=O)c2cc(C#N)ccc2O1` [Product B, 6-cyano-4-(2-oxopyrrolidin-1-yl)-2,2-dimethylchromene], with 70 nM.
For the compound `CC1(C)C=C(n2ccccc2=O)c2cc(Cl)ccc2O1` [SR 45435, 6-Chloro-4-(1,2-dihydro-2-oxopyrid-1-yl)-2,2dimethylchromene], in data set [1] (0.20 mg/kg p.o.), the “Duration of the effect” value was more than 120 min and the “Maximum decrease” value is 70 ± 8 mm of mercury. The compound also yielded an IC50 in the data set with isolated rat portal vein of 8 nM.
Consider `CC1(C)C=C(n2ccccc2=O)c2cc(C#N)ccc2O1` [SR 44866, 6-Cyano-4-(1,2-dihydro-2-oxopyrid-1-yl)-2,2-dimethylchromene], for which the median lethal dose (LD50) in the data set “in vivo” was 1000 mg/kg. Also, the LD0 in the data set on mice came out at 500 mg/kg. The IC50 in data set [2] came out at 1500 nM; in the data set with isolated rat portal vein it was 7.1 nM. The “Concentration producing 50 per cent reduction in action potential duration: times lower than that of product A” value in data set [2] (versus product A) turned out to be 10 times. The “Duration of the effect” value in data set [1] (0.02 mg/kg p.o.) is 90 min; in data set [1] (0.03 mg/kg p.o.), more than 120 min. The results for the “Maximum decrease” value in data set [1] (0.02 mg/kg p.o.) and in data set [1] (0.03 mg/kg p.o.) were 34 ± 6 mm of mercury and 41 ± 6 mm of mercury, respectively. Also, in data set [3], the “Activity relative to product A” value is given as “about 10 times”. Further, the “Antiarrhythmic activity (reducing the number of extrasystoles or restoring a sinus rhythm)” value in the data set on vigilant dogs was “substantial antiarrhythmic activity”.
`CC1(C)Oc2ccc([N+](=O)[O-])cc2[C@@H](n2ccccc2=O)[C@@H]1O` (relative stereo) [Product F, trans-4-(1,2-dihydro-2-oxopyrid-1-yl)-2,2-dimethyl-6-nitrochroman-3-ol] registered an IC50 in the data set with isolated rat portal vein of 16 nM.

The LD50 is the dose expected to kill half of the subjects tested. High values mean a less toxic substance, low ones a more toxic substance.
